pEC50: −log10 of the molar value.
What was measured:
HCV replicon 1b = assay: Cell-based HCV 1b RNA replicon assay; details: Hepatitis C virus, 72 h; Huh-7-derived replicon cells, 3 day incubation, HCV RNA by RT-PCR
Procedure: (§1) These cells were used to establish a sensitive HCV RNA replication cell-based assay for testing candidate test compounds.
(§2) Huh7 cells that stably maintain a subgenomic HCV replicon were established as previously described (Lohman et al. 1999; WO 02/052015). The cells were seeded into a 96 well cell culture cluster at 1×10^4 cells per well in DMEM complemented with 10% FBS, PenStrep (Life Technologies) and […] Geneticin. Cells were incubated in a 5% CO2 incubator at 37° C. until addition of various concentrations of the test compound.
(§3) The test compound was prepared for use in the assay as follows. The test compound in 100% DMSO was added diluted in assay Medium for a final DMSO concentration of 0.5% and the solution was sonicated for 15 min and filtered through a […] Millipore Filter Unit. Serial dilutions of the test compounds were prepared using Assay Medium (containing 0.5% DMSO).
(§4) Cell culture medium was aspirated from the 96-well plate containing the cells and the appropriate dilution of test compound in assay medium was transferred to independent wells of the cell culture plate which was incubated at 37° with 5% CO2.
(§5) Following a 3 day-incubation period, the cells were washed with PBS and total cellular RNA was extracted with the RNeasy Mini Kit® and Qiashredder® from Qiagen. RNA from each well was eluted in 50 μL of H2O. RNA was quantified by optical density at 260 nm on the Cary 1E® UV-Visible spectrophotometer. The HCV RNA replicon copy number was evaluated by real-time RT-PCR with the Abi Prism® 7700 Sequence Detection System. The TAQMAN E® RT-PCR kit provides a system for the detection and analysis of RNA. Direct detection of the reverse transcription polymerase chain reaction (RT-PCR) product with no downstream processing was accomplished by monitoring the increase in fluorescence of a dye-labeled DNA probe. The nucleotide sequence of both primers and probe was located in the 5′ region of the HCV genome. The replicon copy number was then evaluated using a standard curve made with known amounts of replicon copy (supplemented with 50 ng of wild type Huh-7 RNA) assayed in the same reaction mix. The following thermal cycle parameters were used for the RT-PCR reaction on the ABI Prism® 7700 Sequence Detection System. Conditions were optimized for HCV detection. Quantification is based on the threshold cycle, where the amplification plot crosses a defined fluorescence threshold. Comparison of the threshold cycles provides a highly sensitive measure of relative template concentration in different samples. Monitoring during early cycles, when PCR fidelity is at its highest, provides precise data for accurate quantification. The relative template concentration can be converted to real numbers by using the standard curve of HCV with known number of copy.
(§6) The level of inhibition (% inhibition) of each well containing test compound was calculated with the following equation (CN═HCV Replicon copy number): [formula]
(§7) The calculated % inhibition values were then used to determine EC50, slope factor (n) and maximum inhibition (Imax) by the non-linear regression routine NLIN procedure of SAS using the following equation: [formula]

HCV replicon 1a = assay: Cell-based HCV 1a RNA replicon assay; details: Hepatitis C virus, 72 h; Huh-7-derived replicon cells, 3 day incubation, HCV RNA by RT-PCR
Procedure: as §1, §2, §3, §4, §5, §6, §7

Structure (SMILES) | pEC50 (HCV replicon 1b) | pEC50 (HCV replicon 1a)
COc1ccc2c(O[C@@H]3C[C@H]4C(=O)N[C@]5(C(=O)NS(=O)(=O)C6CC6)CC5/C=C\CCCCC[C@H](NC(=O)OC5CCCC5)C(=O)N4C3)cc(-c3csc(NC(C)C)n3)nc2c1 (stereo partly drawn) | 8.96 | 9.15
COc1ccc2c(O[C@@H]3C[C@H]4C(=O)N[C@]5(C(=O)NS(C)(=O)=O)CC5/C=C\CCCCC[C@H](NC(=O)OC5CCCC5)C(=O)N4C3)cc(-c3csc(NC(C)C)n3)nc2c1 (stereo partly drawn) [VII] | 8.48 | 8.49
COc1ccc2c(O[C@@H]3C[C@H]4C(=O)N[C@]5(C(=O)NS(=O)(=O)c6ccccc6)CC5/C=C\CCCCC[C@H](NC(=O)OC5CCCC5)C(=O)N4C3)cc(-c3csc(NC(C)C)n3)nc2c1 (stereo partly drawn) [VI] | 8.52 | 8.66

— patent publication US20050159345A1 (Boehringer Ingelheim International GmbH, priority 2002, published 2005)
